# Test results as given in patent publication US6706276B2, “Compositions and methods for trapping and inactivating pathogenic microbes and spermatozoa” (Rush-Presbyterian-St. Luke's Medical Center, priority 2000, dated 2004).
# Marks after values point to notes of the source that are not given here.
# Key:
# [1] = system: vaginal/cervical epithelial and other cells; conditions: in vitro; cited from earlier work
# [2] = system: HSV-2 strain 186; assay: Genital herpes infection in the mouse model; format: in vivo, mice; conditions: Table IV, 20 sec before virus inoculation; for Protected Against Disease, Number / Protected Against Infection, Number: 15 inoculated
substance,measurement,setting,value
nonoxynol-9 [N-9],lowest concentration injuring cells,[1],about 0.0005%
same,"Protected Against Disease, %",[2]; N-9 5% in PBS,40^d %
same,"Protected Against Infection, %",[2]; N-9 5% in PBS,13%
same,"Protected Against Disease, Number",[2]; N-9 5% in PBS,6
same,"Protected Against Infection, Number",[2]; N-9 5% in PBS,2
same,"Protected Against Disease, %",[2]; N-9 50% in PBS,100^c %
same,"Protected Against Infection, %",[2]; N-9 50% in PBS,93^c %
same,"Protected Against Disease, Number",[2]; N-9 50% in PBS,15
same,"Protected Against Disease, %",[2]; N-9 100% in PBS,100^c %
same,"Protected Against Infection, %",[2]; N-9 100% in PBS,93^c %
same,"Protected Against Disease, Number",[2]; N-9 100% in PBS,15
same,"Protected Against Infection, Number",[2]; N-9 100% in PBS,14
same,"Protected Against Infection, Number",[2]; N-9 in PBS,14
